Calls of active or inactive are those of the source. No cut-off for these calls is given here.
Tests used:
[1] = AUC (0 to infinity) in male Sprague-Dawley rat at 10 mg/kg, po measured upto 30 hrs by LC-MS/MS analysis; type: ADME, organism-based; conditions: in vivo
[2] = Metabolic stability in rat liver microsomes assessed as intrinsic clearance measured upto 60 mins in presence of NADPH by LC/MS-MS analysis; type: ADME, Microsome; conditions: read-out: CLH
[3] = Toxicity in BALB/c mouse assessed as organ abnormalities at 30 to 60 mg/kg, po administered once daily for 21 days; type: organism-based; conditions: in vivo, 504 h, dose 30-60 mg/kg, time 21 day
[4] = Cmax in male Sprague-Dawley rat plasma at 10 mg/kg, IG measured at 6 hrs by LC-MS/MS analysis; type: ADME, organism-based; conditions: po
MOLM-13 = assay: Antiproliferative activity against human MOLM-13 cells assessed as inhibition of cell growth incubated for 72 hrs by celltiter-glo assay; type: functional, cell-based; conditions: MOLM-13, 72 h
[5] = Cmax in male Sprague-Dawley rat at 10 mg/kg, po measured upto 30 hrs by LC-MS/MS analysis; type: ADME, organism-based; conditions: in vivo
LAMA-84 = assay: Antiproliferative activity against human LAMA-84 cells assessed as inhibition of cell growth incubated for 72 hrs by celltiter-glo assay; type: functional, cell-based; conditions: LAMA-84, 72 h
[6] = AUC (0 to infinity) in male Sprague-Dawley rat at 2 mg/kg, iv measured upto 30 hrs by LC-MS/MS analysis; type: ADME, organism-based; conditions: in vivo
[7] = Toxicity in NOD-SCID mouse assessed as decrease in villus height to crypt depth ratio at 15 to 60 mg/kg, po measured every 2 days for 21 days by H and E staining based analysis; type: organism-based; conditions: in vivo, 504 h, dose 15-60 mg/kg, time 21 day
[8] = Toxicity in NOD-SCID mouse assessed as shortening of villi in intestine at 15 to 60 mg/kg, po measured every 2 days for 21 days by H and E staining based analysis; type: organism-based; conditions: in vivo, 504 h, dose 15-60 mg/kg, time 21 day
MM1.S [9] = assay: Inhibition of CRM1 protein expression in human MM1.S cells at 0.25 to 1.25 uM by Western blot analysis; type: functional, cell-based; conditions: dose 0.25-1.25 µM, time 2-24 hrs
[10] = Toxicity in NOD-SCID mouse assessed as hyperplasia of crypt in intestine at 15 to 60 mg/kg, po measured every 2 days for 21 days by H and E staining based analysis; type: organism-based; conditions: in vivo, 504 h, dose 15-60 mg/kg, time 21 day
[11] = AUC (0 to infinity) in male Sprague-Dawley rat at 15 mg/kg, po measured upto 30 hrs by LC-MS/MS analysis; type: ADME, organism-based; conditions: in vivo
MM1.S [12] = assay: Induction of apoptosis in human MM1.S cells assessed as increase in p53 level at 0.5 to 1 uM incubated for 48 hrs by Western blot analysis; type: functional, cell-based; conditions: dose 0.5-1 µM
[13] = Half life in male Sprague-Dawley rat at 2 mg/kg, iv measured upto 30 hrs by LC-MS/MS analysis; type: ADME, organism-based; conditions: in vivo
[14] = Metabolic stability in rat liver microsomes assessed as half life measured upto 60 mins in presence of NADPH by LC/MS-MS analysis; type: ADME, Microsome
[15] = target: Exportin-1 (Homo sapiens) (UniProt O14980); assay: Reversible binding affinity to CRM1 in human U2OS cells incubated for 4 hrs by DAPI staining based fluorescence microscopic analysis; type: cell-based
Chain of Exportin-1 (Homo sapiens) (O14980 whole entry): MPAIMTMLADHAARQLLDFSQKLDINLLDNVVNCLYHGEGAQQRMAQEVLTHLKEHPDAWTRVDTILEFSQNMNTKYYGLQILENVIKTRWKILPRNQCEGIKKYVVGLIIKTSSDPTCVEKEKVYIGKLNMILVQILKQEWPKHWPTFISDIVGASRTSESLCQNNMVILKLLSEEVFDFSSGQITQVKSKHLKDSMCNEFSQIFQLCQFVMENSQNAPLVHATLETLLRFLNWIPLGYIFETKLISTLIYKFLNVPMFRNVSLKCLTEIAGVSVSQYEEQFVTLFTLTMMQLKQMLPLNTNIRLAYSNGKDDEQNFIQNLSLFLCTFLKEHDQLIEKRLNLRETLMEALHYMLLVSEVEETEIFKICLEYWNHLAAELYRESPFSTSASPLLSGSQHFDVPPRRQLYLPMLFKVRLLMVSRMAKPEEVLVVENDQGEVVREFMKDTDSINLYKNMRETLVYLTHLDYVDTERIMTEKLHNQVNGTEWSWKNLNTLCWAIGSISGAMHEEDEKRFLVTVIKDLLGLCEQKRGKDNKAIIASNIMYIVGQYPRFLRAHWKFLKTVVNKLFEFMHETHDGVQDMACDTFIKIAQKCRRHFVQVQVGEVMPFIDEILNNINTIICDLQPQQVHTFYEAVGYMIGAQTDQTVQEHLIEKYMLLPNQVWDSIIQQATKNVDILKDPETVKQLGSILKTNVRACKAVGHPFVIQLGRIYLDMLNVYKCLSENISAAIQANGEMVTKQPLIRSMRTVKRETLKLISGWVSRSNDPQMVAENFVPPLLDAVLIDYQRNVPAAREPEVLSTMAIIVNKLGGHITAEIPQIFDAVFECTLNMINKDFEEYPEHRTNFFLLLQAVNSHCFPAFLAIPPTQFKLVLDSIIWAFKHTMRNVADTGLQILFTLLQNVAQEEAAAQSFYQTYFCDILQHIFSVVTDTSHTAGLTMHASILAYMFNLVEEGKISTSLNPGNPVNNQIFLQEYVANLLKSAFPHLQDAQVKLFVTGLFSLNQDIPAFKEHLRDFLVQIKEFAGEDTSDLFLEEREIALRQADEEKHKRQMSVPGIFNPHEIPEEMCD

HCT-116 [16] = assay: Antiproliferative activity against human HCT-116 cells assessed as inhibition of cell growth incubated for 72 hrs by celltiter-glo assay; type: functional, cell-based; conditions: HCT-116, 72 h
[17] = AUC (0 to infinity) in male Sprague-Dawley rat at 30 mg/kg, po measured upto 30 hrs by LC-MS/MS analysis; type: ADME, organism-based; conditions: in vivo
[18] = Metabolic stability in monkey liver microsomes assessed as half life measured upto 60 mins in presence of NADPH by LC/MS-MS analysis; type: ADME, Macaca mulatta, Microsome; conditions: rhesus monkey
LoVo = assay: Antiproliferative activity against human LoVo cells assessed as inhibition of cell growth incubated for 72 hrs by celltiter-glo assay; type: functional, cell-based
[19] = Tmax in male Sprague-Dawley rat at 15 mg/kg, po measured upto 30 hrs by LC-MS/MS analysis; type: ADME, organism-based; conditions: in vivo
RPMI-8226 = assay: Antiproliferative activity against human RPMI-8226 cells assessed as inhibition of cell growth incubated for 72 hrs by celltiter-glo assay; type: functional, cell-based; conditions: RPMI-8226, 72 h
[20] = Half life in male Sprague-Dawley rat at 10 mg/kg, po measured upto 30 hrs by LC-MS/MS analysis; type: ADME, organism-based; conditions: in vivo
BXPC-3 = assay: Antiproliferative activity against human BXPC-3 cells assessed as inhibition of cell growth incubated for 72 hrs by celltiter-glo assay; type: functional, cell-based; conditions: BXPC-3, 72 h
[21] = target: Exportin-1 (Homo sapiens) (UniProt O14980); assay: (§1) Competitive inhibition of human recombinant CRM1 at 2 uM incubated for 2 hrs in presence of 3-(1-((E)-3-(methoxyamino)-3-oxo-2-(pyrimidin-5-yl)prop-1-en-1-yl)-1H-1,2,4-triazol-3-yl)-5-(trifluoromethyl)phenyl 3-(5-((3aS,4S,6aR)-2-oxohexahydro-1H-thieno[3,4-d]imidazol-4-yl)pentanamido)propanoate by pull down based Western blot analysis
[22] = Cmax in male Sprague-Dawley rat at 30 mg/kg, po measured upto 30 hrs by LC-MS/MS analysis; type: ADME, organism-based; conditions: in vivo
ARH-77 = assay: Antitumor activity against human ARH-77 cells xenografted in NOD-SCID mouse at 15 to 60 mg/kg, po measured every 2 days for 21 days; type: functional, organism-based; conditions: dose 15-60 mg/kg, time 21.0 day
AN3-CA = assay: Antiproliferative activity against human AN3-CA cells assessed as inhibition of cell growth incubated for 72 hrs by celltiter-glo assay; type: functional, cell-based
[23] = Metabolic stability in mouse liver microsomes assessed as intrinsic clearance measured upto 60 mins in presence of NADPH by LC/MS-MS analysis; type: ADME, Microsome; conditions: read-out: CLH
HCT-116 [24] = assay: Antitumor activity against human HCT-116 cells xenografted in NOD-SCID mouse assessed as tumor growth inhibition at 60 mg/kg, po measured every 2 days for 21 days; type: functional, organism-based; conditions: time 21.0 day
[25] = Toxicity in NOD-SCID mouse implanted with human ARH-77 cells assessed as change in body weight at 15 to 60 mg/kg, po measured every 2 days for 21 days; type: organism-based; conditions: in vivo, 504 h, dose 15-60 mg/kg, time 21 day
[26] = AUC in male Sprague-Dawley rat plasma at 10 mg/kg, IG measured at 6 hrs by LC-MS/MS analysis; type: ADME, organism-based; conditions: po
MV4-11 = assay: Antiproliferative activity against human MV4-11 cells assessed as inhibition of cell growth incubated for 72 hrs by celltiter-glo assay; type: functional, cell-based; conditions: MV4-11, 72 h
[27] = target: Exportin-1 (Homo sapiens) (UniProt O14980); assay: as §1, with “Reversible competitive” for “Competitive”
[28] = Toxicity in Sprague-Dawley rat at 30 mg/kg, po measured upto 48 hrs; type: organism-based; conditions: in vivo
[29] = Tmax in male Sprague-Dawley rat at 30 mg/kg, po measured upto 30 hrs by LC-MS/MS analysis; type: ADME, organism-based; conditions: in vivo
[30] = target: Voltage-gated inwardly rectifying potassium channel KCNH2 (Homo sapiens, UniProt Q12809); assay: Inhibition of hERG in HEK293 cells; type: toxicity, cell-based
Chain of Voltage-gated inwardly rectifying potassium channel KCNH2 (Q12809 whole entry): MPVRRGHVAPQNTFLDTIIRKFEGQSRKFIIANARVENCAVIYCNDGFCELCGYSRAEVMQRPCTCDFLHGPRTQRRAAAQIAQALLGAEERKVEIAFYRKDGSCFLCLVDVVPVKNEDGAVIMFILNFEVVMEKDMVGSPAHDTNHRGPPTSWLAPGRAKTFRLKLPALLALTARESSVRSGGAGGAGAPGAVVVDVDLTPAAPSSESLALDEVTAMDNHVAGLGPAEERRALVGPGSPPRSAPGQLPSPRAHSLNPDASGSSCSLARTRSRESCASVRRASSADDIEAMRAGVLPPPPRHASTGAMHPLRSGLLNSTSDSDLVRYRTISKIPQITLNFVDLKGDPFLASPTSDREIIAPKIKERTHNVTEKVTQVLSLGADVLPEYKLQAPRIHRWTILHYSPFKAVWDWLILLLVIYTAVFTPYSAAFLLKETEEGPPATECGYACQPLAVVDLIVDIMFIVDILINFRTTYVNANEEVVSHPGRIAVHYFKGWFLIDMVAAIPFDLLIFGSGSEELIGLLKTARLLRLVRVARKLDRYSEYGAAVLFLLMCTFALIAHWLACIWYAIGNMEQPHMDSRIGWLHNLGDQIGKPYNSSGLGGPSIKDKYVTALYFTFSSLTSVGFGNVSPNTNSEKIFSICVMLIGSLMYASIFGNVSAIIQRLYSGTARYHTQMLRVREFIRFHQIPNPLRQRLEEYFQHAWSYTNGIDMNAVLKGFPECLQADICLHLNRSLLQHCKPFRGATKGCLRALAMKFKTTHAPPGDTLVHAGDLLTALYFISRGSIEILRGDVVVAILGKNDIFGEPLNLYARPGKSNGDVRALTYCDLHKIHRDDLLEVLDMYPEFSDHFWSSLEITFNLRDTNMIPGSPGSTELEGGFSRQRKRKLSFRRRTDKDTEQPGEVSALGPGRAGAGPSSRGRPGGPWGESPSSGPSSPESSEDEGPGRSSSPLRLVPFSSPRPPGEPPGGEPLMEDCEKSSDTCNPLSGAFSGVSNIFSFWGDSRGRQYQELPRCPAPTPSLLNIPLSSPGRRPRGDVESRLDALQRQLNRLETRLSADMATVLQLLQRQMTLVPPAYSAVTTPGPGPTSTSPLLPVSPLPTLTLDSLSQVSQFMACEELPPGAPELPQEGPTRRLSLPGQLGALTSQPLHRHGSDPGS

[31] = Toxicity in BALB/c mouse assessed as shortened intestine at 90 to 120 mg/kg, po administered once daily for 21 days; type: organism-based; conditions: in vivo, 504 h, dose 90-120 mg/kg, time 21 day

AUC(0-inf) [1]: 4180 ng·h/mL | microsomal CLint [2]: 7.2 µL/min/mg | Cmax [4]: 18.9 ng/mL | IC50 (MOLM-13): 0.478 µM | Cmax [5]: 899 ng/mL | AUC(0-inf) [6]: 1490 ng·h/mL | AUC(0-inf) [11]: 5830 ng·h/mL | half-life [13]: 4.2 h | half-life [14]: > 2 h | Activity [15]: Active | IC50 (HCT-116 [16]): 0.435 µM | AUC(0-inf) [17]: 10400 ng·h/mL | half-life [18]: > 2 h | IC50 (LoVo): 2.04 µM | Tmax [19]: 0.25 h | IC50 (RPMI-8226): 0.304 µM | half-life [20]: 5.6 h | IC50 (BXPC-3): 3.18 µM | inhibition [21]: Active | Cmax [22]: 844 ng/mL | microsomal CLint [23]: 12.6 µL/min/mg | AUC at 6 h [26]: 2480 ng·h/mL | IC50 (MV4-11): 0.0435 µM | inhibition [27]: Active | Tmax [29]: 0.3 h
SMILES: CONC(=O)/C(=C/n1cnc(-c2cc(C(F)(F)F)cc(C(F)(F)F)c2)n1)c1cncnc1
Activity [3]: Non-toxic | IC50 (LAMA-84): 1.48 µM | Activity [7]: Non-toxic | Activity [8]: Non-toxic | inhibition (MM1.S [9]): Time-dependent-effect | Activity [10]: Non-toxic | Activity (MM1.S [12]): Active | Activity (ARH-77): Active | IC50 (AN3-CA): 1.08 µM | TGI (HCT-116 [24]): Active | Activity [25]: Toxic | Activity [28]: Non-toxic | IC50 [30]: 18.9 µM | Activity [31]: Non-toxic

Reference: ChEMBL document CHEMBL6083277, “Discovery of SZJK-0421: A Novel Potent, Low Toxicity, Selective Second Generation of CRM1 Inhibitor for the Treatment of Both Hematological and Solid Tumors” (J Med Chem, 2024)
